The values that follow are results of earlier work, collected in the CATMoS acute toxicity set (Mansouri et al. 2021).

By LD50 is commonly meant the dose expected to kill half of the subjects tested.

Several values for one entry are separate records, joined by “and”; a condition that tells them apart may be missing. Equal values may be shown once.

The nature of the series: rat acute oral toxicity. The conditions noted are these: in vivo.
For `c1cc(CC2CO2)cc(CC2CO2)c1` (stereo not drawn), the LD50 is 4190 mg/kg.

Turning to `CCN(CC)CCCNC(=O)C(C)(C)Oc1ccc(Cl)cc1`, the LD50 was 150 mg/kg.

`Cn1cc(CCc2cc[n+](CCC[N+](C)(C)C)cc2)c2ccccc21`: the LD50 is 200 mg/kg.

In the case of `O=C(O)C1CCCCC1`, the LD50 is 3260 mg/kg.

As for `COC(=O)c1ccc(I)cc1S(=O)(=O)NC(=O)Nc1nc(C)nc(OC)n1`, the LD50 is 2680 mg/kg.

In the case of `CC(=O)c1ccc2c(c1)N(CCCN1CCN(C)CC1)c1ccccc1S2`, the LD50 is 650 mg/kg.

In the case of `C=CC#CC(C)(C)O`, the LD50 is 600 mg/kg.

Take `CCCCCCCCCCCC=O`: the LD50 was 23000 mg/kg.

As for `CSCC(=NO)C(C)(C)C`, the LD50 is 813 mg/kg.

Take `O=C1C[C@@H]2OCC=C3CN4CC[C@]56c7ccccc7N1[C@H]5[C@H]2[C@H]3C[C@H]46`: the LD50 was 16.2 mg/kg.

For the molecule `C=CCOCC(CC)(CO)CO`, the LD50 was 4930 mg/kg.

For the molecule `c1ccc([Si]23OCCN(CCO2)CCO3)cc1`, the LD50 is 1.48 mg/kg.

Take `Cc1cc(F)ccc1NC(=O)c1cc(Cl)cc(-c2ccc(Cl)cc2)c1O`: the LD50 was 2510 mg/kg.

Regarding `CNC(=O)Oc1ccccc1C1OCCCO1`, the 50% lethal dose (LD50) is 142 mg/kg.

In the case of `ClCc1ccccn1`, the LD50 was 316 mg/kg.

With `COc1ccc2c(c1)CCC(c1ccccc1)=C2c1ccc(OCCN2CCCC2)cc1`, the LD50 is 302 mg/kg.

As for `OC(c1ccccc1)(c1ccccc1)C1CN2CCC1CC2` (stereo not drawn), the LD50 was 440 mg/kg.

On to `CCCCCCCCCCCCCCCCSCC(COC)COP(=O)([O-])OCC[N+](C)(C)C` (stereo not drawn), for which the LD50 was 253 mg/kg.

In the case of `CCCOC(=O)CCC(=O)OCCC`, the LD50 is 6490 mg/kg.

With `CCn1cc(C(=O)O)c(=O)c2cc(F)c(N3CCN(C)CC3)cc21`, the LD50 was 2500 mg/kg.

For `Oc1ccc(Cc2ccc(O)cc2)cc1`, the LD50 is 4950 mg/kg.

`CC(=O)CC1OCC(CCl)O1` (stereo not drawn): the LD50 is 120 mg/kg.

`CCCCCCCCCCCCCCCCCCN(C)C`: the LD50 is 200 mg/kg.

`O=C(Oc1cccc(O)c1)c1ccccc1`: the LD50 is 800 mg/kg.

Regarding `CCOP(=S)(OCC)Sc1nc(C)cc(C)n1`, the LD50 is 59 mg/kg.

Consider `COCCOc1c(OC)cc(Cc2cnc(N)nc2N)cc1OC`, for which the LD50 was 1170 mg/kg.

With `CCCCOC(C)OCCCC`, the LD50 was 8790 mg/kg.

As to `CCCCCCCCc1ccc(C(=O)CCN2CCCCC2)cc1`, the LD50 is 417 mg/kg.

With `Fc1cc(F)c2nc(C(F)(F)F)[nH]c2c1`, the LD50 was 2.49 mg/kg.

With `CCCCC(O)C(N)CC` (stereo not drawn), the LD50 was 550 mg/kg.

For the molecule `Cc1c(Cl)c(Cl)c(Cl)c(C(Cl)Cl)c1Cl`, the LD50 is 2920 mg/kg.

Regarding `CC(=O)Nc1ccc([N+](=O)[O-])c(Cl)n1`, the LD50 was 1940 mg/kg.

With `CCCS(=O)(=O)c1c(Cl)cnc(Cl)c1Cl`, the LD50 is 1100 mg/kg.

With `Clc1cc(Cl)c(Cl)c(Cl)c1`, the LD50 is 1730 mg/kg.

`CCOP(=S)(OCC)SCC(=O)OC`: the LD50 was 1000 mg/kg.

`COP(=S)(OC)Oc1ccc(Sc2ccc(OP(=S)(OC)OC)c(C)c2)cc1C`: the LD50 was 250 mg/kg.

Turning to `N=c1ccn(O)cc1`, the LD50 is 75 mg/kg.

In the case of `CCN(CCCCCCOC(=O)c1ccc(OC)c(OC)c1)C1CCc2cc(OC)ccc2C1` (stereo not drawn), the LD50 is 2830 mg/kg.

For the molecule `COC(=O)CCC[N+](C)(C)C`, the LD50 was 478 mg/kg.

With `CC(C)CC(CC(C)C)OCCOCCO`, the LD50 is 8680 mg/kg.

With `CCOC(=O)NNc1nncc2ccccc12`, the LD50 is 318 mg/kg and 598 mg/kg.

In the case of `CCN(CC)C(=O)c1ccccc1O`, the LD50 was 580 mg/kg.

With `C=CCNC(=O)OCC(O)C1COc2ccccc2O1` (stereo not drawn), the LD50 was 1500 mg/kg.

Regarding `C=CCOc1ccccc1C(=O)N(C)C`, the LD50 is 740 mg/kg.

For the molecule `CCOP(=S)(OCC)Oc1cc(C)nc2ccccc12`, the LD50 was 50 mg/kg.

With `O=C(NNC1OC(C(=O)O)C(O)C(O)C1O)c1ccncc1` (stereo not drawn), the LD50 is 20300 mg/kg.

Regarding `Cc1ccc(NCCCc2ccccc2)cc1`, the LD50 was 1600 mg/kg.

For the molecule `Nc1ccc2cc(S(=O)(=O)O)c(/N=N/c3ccc(-c4ccc(/N=N/c5c(S(=O)(=O)O)cc6cc(S(=O)(=O)O)cc(N)c6c5O)cc4)cc3)c(O)c2c1`, the LD50 is 6450 mg/kg.

Regarding `Cc1ccc(N(SC(F)(Cl)Cl)S(=O)(=O)N(C)C)cc1`, the LD50 is 1000 mg/kg.

As for `CCOP(=O)(OCC)SCC`, the LD50 is 27 mg/kg.

On to `CC(C)(C)c1cc(Cl)cc(Sc2cc(Cl)cc(C(C)(C)C)c2O)c1O`, for which the LD50 is 6100 mg/kg.

`CCOC(N)=C1Sc2ccccc2C1=O`: the LD50 is 4000 mg/kg.

Consider `CN(C)C(=O)Nc1ccc(SC(F)(F)Cl)c(Cl)c1`, for which the LD50 is 336 mg/kg.

As to `CC(=O)[C@]1(O)Cc2c(O)c3c(c(O)c2[C@@H](O[C@H]2C[C@H](N)[C@H](O)[C@H](C)O2)C1)C(=O)c1ccccc1C3=O`, the 50% lethal dose (LD50) is 5.43 mg/kg.

With `CC(C)Nc1nc(NC(C)C)nc(N(C)C#N)n1`, the LD50 was 1700 mg/kg.

With `CC[N+](C)(C)CCC(C(N)=O)(c1ccccc1)c1ccccc1`, the LD50 was 1350 mg/kg.

`c1coc(OCC2CO2)c1` (stereo not drawn): the LD50 is 1100 mg/kg.

Take `O=C1[C@H]2CCCC[C@H]2C(=O)N1CCCCN1CCN(c2nsc3ccccc23)CC1`: the LD50 is 870 mg/kg.

As to `N#CN`, the LD50 was 1620 mg/kg.

For `CC(C)(C)CC(C)(C)SSSSCC(C)(CC(C)(C)C)SSSSC(C)(C)CC(C)(C)C` (stereo not drawn), the LD50 was 3640 mg/kg.

As to `CN1CCN(CCC(=O)NN=Cc2ccc([N+](=O)[O-])o2)CC1`, the LD50 was 300 mg/kg.

`CN1CCCC(=C(c2cccs2)c2cccs2)C1`: the LD50 was 10000 mg/kg.

With `CC(C)(C)c1nnc(NS(=O)(=O)c2ccccc2)s1`, the LD50 was 500 mg/kg.

As to `CCc1c(C)nc2ccccn2c1=O`, the LD50 was 1000 mg/kg.

For the molecule `CCC(C(=O)O)C1(O)CCCCC1` (stereo not drawn), the LD50 was 4820 mg/kg.

On to `CCc1c(C)[nH]c2c1C(=O)C(CN1CCOCC1)CC2` (stereo not drawn), for which the LD50 is 261 mg/kg.

Regarding `CCC(C)c1ccccc1OC(=O)NC` (stereo not drawn), the LD50 is 350 mg/kg.

Take `O=C(O)C1=CC(=C(c2ccc(O)c(C(=O)O)c2)c2ccc(O)c(C(=O)O)c2)C=CC1=O`: the LD50 is 9000 mg/kg.

With `NNc1ccc(N(CCO)CCO)nn1`, the LD50 is 1800 mg/kg.

On to `Nc1c(CC(=O)O)cccc1C(=O)c1ccccc1`, for which the LD50 is 311 mg/kg.

Take `CCN1CC(CCN2CCOCC2)C(c2ccccc2)(c2ccccc2)C1=O` (stereo not drawn): the LD50 was 261 mg/kg.

On to `O=NN(CCCC(F)(F)F)CCCC(F)(F)F`, for which the LD50 is 750 mg/kg.

Turning to `CC(CN(C)C)CN1c2ccccc2CCc2ccccc21` (stereo not drawn), the LD50 was 800 mg/kg.

For the molecule `C/C(=C1\CCOC(=O)S1)N(C=O)Cc1cnc(C)nc1N`, the LD50 was 7600 mg/kg.

`CCCCCCCCCCCCCC[n+]1ccc(C)cc1`: the 50% lethal dose (LD50) is 250 mg/kg.

In the case of `CCOC(=O)C(CC)(C(=O)NCCN(CC)CC)c1ccccc1` (stereo not drawn), the LD50 is 610 mg/kg.

For the molecule `Clc1ccccc1C(c1ccccc1)(c1ccccc1)n1ccnc1`, the LD50 was 708 mg/kg.

As to `C=CC(=O)NC`, the LD50 was 476 mg/kg.

Take `OC[P+](CO)(CO)CO`: the LD50 is 232 mg/kg.

As for `CC(=O)Oc1ccc(Br)cc1C(=O)O`, the LD50 is 1130 mg/kg.

Take `Cc1cc(C)n(SC(Cl)(Cl)Cl)n1`: the LD50 is 570 mg/kg.

Regarding `CC(C(=O)OCCN1CCN(CCOC(=O)C(C)c2cccc3ccccc23)CC1)c1cccc2ccccc12` (stereo not drawn), the LD50 was 5550 mg/kg.

With `CCN(O)CC`, the LD50 was 2190 mg/kg.

With `CC[N+](CC)(CC)CCOC(=O)C(C1CCCC1)C1CCCC1`, the LD50 is 780 mg/kg.

As to `COc1ccc(OCCCN(C)CCOc2ccc3c(c2)OCO3)c(C2Sc3ccccc3N(C)C2=O)c1` (stereo not drawn), the LD50 is 206 mg/kg.

`Nc1nc2cccc(Cl)c2o1`: the LD50 is 410 mg/kg.

On to `CCOP(=S)(OC)Oc1ccc([N+](=O)[O-])cc1` (stereo not drawn), for which the LD50 is 2.85 mg/kg.

Turning to `Nc1ccc2ccccc2c1`, the LD50 is 727 mg/kg.

With `CCOC(=O)c1cnn(C)c1-n1c(CC)nc2ccccc2c1=O`, the LD50 is 1820 mg/kg.

`CCOC(=O)c1ccc(N)cc1`: the LD50 is 3040 mg/kg.

As for `NC1CCc2ccccc2C1` (stereo not drawn), the LD50 was 100 mg/kg.

Take `CCCCCCCC=O`: the LD50 is 5630 mg/kg.

On to `C1C[SiH2]C1`, for which the LD50 was 1540 mg/kg.

In the case of `CC(NC(C)(C)C)C(=O)c1cccc(Cl)c1` (stereo not drawn), the LD50 is 482 mg/kg and 600 mg/kg.

Take `O=[N+]([O-])c1cc(C(F)(F)F)ccc1Cl`: the LD50 was 1080 mg/kg.

Take `CN1CCC2(C)c3cc(OC(=O)NCCCCCCCCN4CCSCC4)ccc3N(C)C12` (stereo not drawn): the LD50 was 23.8 mg/kg.

Regarding `CCCCCCC(=O)OCCN1CCN(CCCN2c3ccccc3Sc3ccc(C(F)(F)F)cc32)CC1`, the LD50 is 230 mg/kg.

For the molecule `CC(C[N+](C)(C)C)OC(N)=O` (stereo not drawn), the LD50 is 1500 mg/kg.

On to `CC(C)COP(=S)(S)OCC(C)C`, for which the LD50 was 3000 mg/kg.

Consider `Cc1ccccc1CNC1=NCCS1`, for which the LD50 was 164 mg/kg.

With `CCCc1cc(C(N)=S)ccn1`, the median lethal dose (LD50) is 1320 mg/kg.

Consider `CCOC(=O)C(NCCNC(C(=O)OCC)c1ccccc1O)c1ccccc1O` (stereo not drawn), for which the LD50 was 800 mg/kg.

Take `C=CCN1CCC23CCCCC2C1Cc1ccc(O)cc13` (stereo not drawn): the LD50 was 850 mg/kg.

Consider `O=[N+]([O-])c1ccc(/C=N/NC(=S)N2CCCCC2)o1`, for which the LD50 is 750 mg/kg.

Consider `N#CCCC#N`, for which the LD50 was 450 mg/kg.

For `O=C(O)c1cccnc1C(=O)O`, the LD50 was 1550 mg/kg.

For the molecule `O=C(CO)Nc1ccccc1`, the LD50 was 1700 mg/kg.

In the case of `C=Cc1ccccc1Cl`, the LD50 is 5200 mg/kg.

As to `CC(C)(C)c1cc(CCC(=O)O)ccc1O`, the LD50 was 1000 mg/kg.

On to `COP(=S)(OC)SC1OCCOC1SP(=S)(OC)OC` (stereo not drawn), for which the LD50 is 350 mg/kg.

For the molecule `CCOC(=O)[C@H](CCc1ccccc1)N[C@@H](C)C(=O)N1Cc2cc(OC)c(OC)cc2C[C@H]1C(=O)O`, the LD50 is 4020 mg/kg.

As for `COc1ccc(SP(=S)(CCl)OC(C)C)cc1` (stereo not drawn), the LD50 is 108 mg/kg.

With `CCCCOC(=S)SC(=S)OCCCC`, the LD50 is 1400 mg/kg.

In the case of `CCCCOP(=O)(OCCCC)Oc1ccc2c(C)c(Cl)c(=O)oc2c1`, the LD50 is 63 mg/kg.

For `COP(=O)(OC)OC(=CBr)c1ccc(Cl)cc1Cl`, the LD50 is 225 mg/kg.

For the molecule `N#CC(Cl)=C(Cl)Cl`, the LD50 was 62.5 mg/kg.

Consider `CCC(O)CCO` (stereo not drawn), for which the LD50 is 20000 mg/kg.

Turning to `FC(F)(F)c1nc2c(Cl)c(Cl)c(Cl)c(Br)c2[nH]1`, the LD50 was 4.12 mg/kg.

On to `COP(=O)(OC)SC`, for which the LD50 is 15 mg/kg.

Take `COc1ccc(S(=O)(=O)Nc2nnc(C(C)(C)C)s2)cc1`: the LD50 is 1150 mg/kg.

Take `COP(=S)(OC)SCn1nc(C)ccc1=O`: the LD50 is 8.75 mg/kg.

In the case of `CN=C(O)Oc1cccc2c1OC(C)C2` (stereo not drawn), the LD50 was 43 mg/kg.

Turning to `CC1(C)N=C(N)N=C(N)N1c1ccccc1`, the LD50 was 447 mg/kg.
